From patent publication US20210317090A1, “AMINO ACID DEPLETION AGENTS AS ANTIPROLIFERATIVE AGENTS” (University of Central Florida Research Foundation, Inc., priority 2018, published 2021)
Read-outs that look alike come from different tables or passages of the source.

Legend:
[1] = tested on: L3.6pl human pancreatic cancer cells; experiment: Cytotoxicity dose-response (MTS) in L3.6pl cells; assay type: cell-based; conditions: for IC50: Homo sapiens, L3.6pl cells
Experimental: L3.6pl Studies. Compounds 9 and 10 were evaluated in the metastatic human pancreatic cancer cell line, L3.6pl. L3.6pl has a K-ras mutation, and high polyamine uptake activity.^7 A dose-response curve was obtained for each compound in L3.6pl cells to determine the 72 h L3.6pl IC50 value, described as the dose at which L3.6pl cells were 50% viable compared to the untreated control.
Regarding the biological studies performed in the following examples, it is noted that CHO K1, CHO-MG, and L3.6pl cells were grown in RPMI 1640 medium supplemented with 10% fetal bovine serum (FBS) and 1% penicillin/streptomycin. All cells were grown at 37° C. under a humidified 5% CO2 atmosphere. Aminoguanidine (1 mM used for CHO K1 and CHOMG cells and 250 μM for L3.6pl) was added to the growth medium to prevent oxidation of the compounds of the bovine serum amine oxidase enzyme that is present in calf serum. The cells used were in early to mid log phase and CHO and CHOMG were plated out at 1000 cells/well, whereas the L3.6pl cells were plated at 500 cells/well in a 96 well plate format.
This example illustrates aspects according to various embodiments pertaining to IC50 determinations and cell viability studies. Cell growth was assayed in sterile 96-well microtiter plates (Costar 3599, Corning, N.Y.). CHO K1 or CHOMG cells were plated at 1,000 cells/70 μL and L3.6pl cells at 500 cells/70 μL. The drug solutions of appropriate concentration in phosphate buffered saline (PBS) were added 10 μL per well after overnight incubation. After drug exposure (e.g., for 48 h for CHO K1 and CHO-MG and 48 h or 72 h for L3.6pl), cell growth was determined by measuring formazan formation from the 3-(4,5dimethylthiazol-2-yl)-5-(3-carboxymethoxyphenyl)-2-(4-sulfenyl)-2H tetrazolium, inner salt (MTS) using SynergyMx Biotek microplate reader for absorbance (490 nm) measurements.^27 All experiments were run in triplicate.

CHO-K1 cells = experiment: Rescue by exogenous native polyamines in CHO-K1 cells; assay type: cell-based, Chinese hamster; conditions: CHO-K1, toxic concentration of compound 10 (results not shown)
LAT-1 = molecular target: T1, LAT-1 (Homo sapiens, UniProt Q01650); experiment: 3H-Leucine efflux assay; assay type: cell-based; conditions: L3.6pl
T1 construct: endogenous in cells; host or cells: L3.6pl human pancreatic cancer cells
From the text: JPH203 is not toxic to L3.6pl cells over this concentration range and time interval. FIG. 10E is an example according to various embodiments, illustrating results obtained for a Leu uptake inhibition experiment with compound 10. Note: the y-axis in FIG. 10E is in CPM per ug of protein to normalize the data and account for any potential losses of cells due to toxicity of compound 10. FIG. 10F is an example according to various embodiments, illustrating results obtained for a Leucine efflux experiment with LAT-1 inhibitor JPH-203. Briefly, the efflux procedure involved cells pre-incubated with ‘hot’ leucine (3H labeled) and washed to remove unbound radiolabeled Leucine. The cells were then incubated in the presence and absence of unlabeled Leucine (100 μM) and/or the LAT-1 inhibitor JPH-203 (30 μM). In the presence of unlabeled leucine, the cells released ‘hot’ 3H-leucine into the media which was measured via scintillation/radioactivity counts. This efflux or release from within the cell was inhibited by the presence of the LAT-1 inhibitor, JPH-203 (30 μM, FIG. 10F). Since JPH203 inhibits the import of unlabeled leucine then less unlabeled Leucine will enter the cell and less efflux of radiolabeled Leucine molecules from inside the cell will be observed. This is consistent with JPH-203 being a LAT-1 inhibitor. FIG. 10G is an example according to various embodiments, illustrating results obtained for a two minute Leucine efflux experiment with compound 10. Cells were pre-incubated with ‘hot’ leucine (^3H labeled) and washed to remove unbound radiolabeled Leucine. The cells were then incubated in the presence and absence of unlabeled “cold” Leucine (100 μM) and/or the compound 10 (20 μM). In the presence of unlabeled ‘cold’ leucine, the cells released ‘hot’ ^3H-leucine into the media which was measured via scintillation/radioactivity counting. […] The efflux experiment was repeated and the time for monitoring efflux increased to 30 minutes. […] In summary, compound 10 inhibits Leucine uptake and facilitates LAT-1 mediated efflux.
^3H-Leucine Efflux Assay ^3H-Leucine efflux experiments were performed according to the protocol developed by Hälfliger et al. (2018) (referenced below) with the following changes. Briefly, cells were preloaded with 12 μM stock of L-[^3H]leucine (79 Ci/mmol) to give a final concentration of ^3H-leucine was 1.2 μM in each well. […] The medium was then collected and mixed with scintillation fluid (Scintiverse™ BD Cocktail) and radioactivity measured (Beckman Coulter LS 6500 Multi-Purpose Scintillation Counter). […] The lysate (300 μL) was mixed with scintillation fluid and radioactivity was counted. Relative efflux was expressed as percentage radioactivity=100%×(radioactivity of medium)/(radioactivity of the medium+radioactivity of the cells). […]

T1 sequence (Q01650 whole entry): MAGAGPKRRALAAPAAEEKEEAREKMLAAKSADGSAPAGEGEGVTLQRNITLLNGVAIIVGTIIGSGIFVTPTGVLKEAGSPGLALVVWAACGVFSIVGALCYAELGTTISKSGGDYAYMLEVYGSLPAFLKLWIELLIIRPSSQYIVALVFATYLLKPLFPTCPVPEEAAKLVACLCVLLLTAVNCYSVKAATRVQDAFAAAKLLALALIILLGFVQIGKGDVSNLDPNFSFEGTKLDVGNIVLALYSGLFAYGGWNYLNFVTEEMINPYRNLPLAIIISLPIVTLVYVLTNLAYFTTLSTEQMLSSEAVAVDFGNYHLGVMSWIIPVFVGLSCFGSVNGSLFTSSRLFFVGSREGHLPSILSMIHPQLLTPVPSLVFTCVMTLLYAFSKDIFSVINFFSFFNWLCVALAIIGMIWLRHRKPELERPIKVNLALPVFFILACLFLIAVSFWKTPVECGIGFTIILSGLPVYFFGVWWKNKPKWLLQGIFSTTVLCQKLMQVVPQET
T1 sequence (P08195 102-630 partner): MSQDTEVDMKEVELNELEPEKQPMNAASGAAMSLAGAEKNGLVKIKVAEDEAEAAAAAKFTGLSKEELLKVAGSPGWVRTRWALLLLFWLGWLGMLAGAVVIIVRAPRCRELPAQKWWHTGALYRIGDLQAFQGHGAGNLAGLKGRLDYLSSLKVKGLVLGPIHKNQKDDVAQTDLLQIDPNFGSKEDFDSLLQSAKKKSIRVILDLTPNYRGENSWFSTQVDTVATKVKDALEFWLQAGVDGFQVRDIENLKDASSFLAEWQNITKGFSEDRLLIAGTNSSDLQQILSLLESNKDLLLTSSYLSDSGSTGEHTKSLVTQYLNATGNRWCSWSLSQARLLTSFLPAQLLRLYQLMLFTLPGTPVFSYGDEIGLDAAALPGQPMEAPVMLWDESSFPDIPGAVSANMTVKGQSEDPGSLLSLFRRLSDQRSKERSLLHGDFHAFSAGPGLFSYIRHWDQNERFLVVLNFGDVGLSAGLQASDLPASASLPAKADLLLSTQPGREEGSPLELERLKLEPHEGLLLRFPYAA

## CC(C)CCN1CCN(C(CNCc2ccccc2)CC2CCCCC2)CC1CC(C)C.Cl.Cl.Cl (stereo not shown) [Compound 10, Benzyl-{3-cyclohexyl-2-[3-isobutyl-4-(3-methyl-butyl)-piperazin-1-yl]-propyl}-amine trihydrochloride salt]
[1]; 48 h, read-out: 48 h IC50
  IC50: 3.48 ± 0.3 µM
[1]; 72 h, read-out: 72 h IC50
  IC50: 5.9 ± 0.2 µM
[1]; L3.6pl, second highest concentration tested (1 μM), 72 h
  toxicity of compound alone: nontoxic
[1]; from 48 h IC50 values
  toxicity to L3.6pl cancer cells relative to CHO K1 and CHO-MG cell lines: approximately three fold more toxic
CHO-K1 cells
  rescue of treated cells by native polyamines: unable to rescue
LAT-1; 2 min, JPH-203 30 μM or compound 10 20 μM
  3H-leucine efflux, compound alone: slight increase in efflux
LAT-1; 30 minutes, in presence and absence of leucine (1 μM), vs untreated control (FIG. 10H)
  efflux of radiolabeled leucine: increased efflux
